Test results published in patent US9944608B2, “Herbicidal pyridazinone derivatives” (Syngenta Participations AG, priority 2014, dated 2018).

Key:
Experiment in all cases: B1 Post-emergence efficacy, glasshouse pot test
Assay type in all cases: in vivo
Conditions in all cases: post-emergence application, 1000 g/ha, evaluated after 13 days
Lolium perenne (LOLPE) = system: Lolium perenne (LOLPE)
Experimental: (§1) B1 Post-Emergence Efficacy Seeds of a variety of test species are sown in standard soil in pots:—Solanum nigrum (SOLNI), Amaranthus retoflexus (AMARE), Setaria faberi (SETFA), Alopecurus myosuroides (ALOMY), Echinochloa crus-galli (ECHCG), Ipomoea hederacea (IPOHE), Lolium perenne (LOLPE). After 8 days cultivation (post-emergence) under controlled conditions in a glasshouse (at 24/16° C., day/night; 14 hours light; 65% humidity), the plants are sprayed with an aqueous spray solution derived from the formulation of the technical active ingredient in acetone/water (50:50) solution containing 0.5% Tween 20 (polyoxyethelyene sorbitan monolaurate, CAS RN 9005-64-5). Compounds are applied at 1000 g/ha. The test plants are then grown in a glasshouse under controlled conditions in a glasshouse (at 24/16° C., day/night; 14 hours light; 65% humidity) and watered twice daily. After 13 days, the test is evaluated for the percentage damage caused to the plant. The biological activities are assessed on a five point scale (5=80-100%; 4=60-79%; 3=40-59%; 2=20-39%; 1=0-19%). A blank value in the table is indicative that the compound was not tested on that species.

Solanum nigrum (SOLNI) = system: Solanum nigrum (SOLNI)
Experimental: as §1

Setaria faberi (SETFA) = system: Setaria faberi (SETFA)
Experimental: as §1

[1] = system: Ipomoea hederacea (IPOHE)
Experimental: as §1

[2] = system: Amaranthus retoflexus (AMARE)
Experimental: as §1

[3] = system: Echinochloa crus-galli (ECHCG)
Experimental: as §1

| Structure (SMILES) | LOLPE: percentage damage caused to the plant (five point scale) (Lolium perenne (LOLPE)) | SOLNI: percentage damage caused to the plant (five point scale) (Solanum nigrum (SOLNI)) | SETFA: percentage damage caused to the plant (five point scale) (Setaria faberi (SETFA)) | IPOHE: percentage damage caused to the plant (five point scale) [1] | AMARE: percentage damage caused to the plant (five point scale) [2] | ECHCG: percentage damage caused to the plant (five point scale) [3] |
| --- | --- | --- | --- | --- | --- | --- |
| Cc1nn(C)c(=O)c(-c2ccccc2OCc2ccccc2)c1O [Compound 1.002] | 1 (1=0-19%) | 5 (5=80-100%) | 1 (1=0-19%) | 1 (1=0-19%) | 4 (4=60-79%) | 1 (1=0-19%) |
| Cc1nn(C)c(=O)c(-c2cccc(Cl)c2OCc2ccccc2)c1O [Compound 1.003] | 5 (5=80-100%) | 5 (5=80-100%) | 3 (3=40-59%) | 5 (5=80-100%) | 4 (4=60-79%) | 5 (5=80-100%) |
| Cc1nn(C)c(=O)c(-c2c(F)ccc(Cl)c2OCc2ccccc2)c1O [Compound 1.004] | 5 (5=80-100%) | 5 (5=80-100%) | 5 (5=80-100%) | 5 (5=80-100%) | 5 (5=80-100%) | 5 (5=80-100%) |
| Cc1nn(C)c(=O)c(-c2c(Cl)ccc(Cl)c2OCc2ccc(Cl)c(Cl)c2)c1O [Compound 1.005] | 5 (5=80-100%) | 5 (5=80-100%) | 5 (5=80-100%) | 5 (5=80-100%) | 5 (5=80-100%) | 5 (5=80-100%) |
| Cc1nn(C)c(=O)c(-c2c(Cl)cc(Cl)cc2OCc2ccccc2)c1O [Compound 1.006] | 2 (2=20-39%) | 5 (5=80-100%) | 3 (3=40-59%) | 5 (5=80-100%) | 5 (5=80-100%) | 3 (3=40-59%) |
| CCc1nn(C)c(=O)c(-c2c(Cl)ccc(Cl)c2OCc2ccccc2)c1O [Compound 1.007] | 4 (4=60-79%) | 5 (5=80-100%) | 5 (5=80-100%) | 5 (5=80-100%) | 5 (5=80-100%) | 5 (5=80-100%) |
| Cn1nc(C2CC2)c(O)c(-c2c(Cl)ccc(Cl)c2OCc2ccccc2)c1=O [Compound 1.009] | 5 (5=80-100%) | 5 (5=80-100%) | 5 (5=80-100%) | 5 (5=80-100%) | 5 (5=80-100%) | 5 (5=80-100%) |
| CCc1nn(C)c(=O)c(-c2c(F)ccc(Cl)c2OCc2ccccc2)c1O [Compound 1.010] | 4 (4=60-79%) | 5 (5=80-100%) | 3 (3=40-59%) | 5 (5=80-100%) | 5 (5=80-100%) | 4 (4=60-79%) |
| Cn1nc(C2CC2)c(O)c(-c2c(F)ccc(Cl)c2OCc2ccccc2)c1=O [Compound 1.012] | 5 (5=80-100%) | 5 (5=80-100%) | 5 (5=80-100%) | 5 (5=80-100%) | 5 (5=80-100%) | 5 (5=80-100%) |
| Cc1nn(C)c(=O)c(-c2c(Cl)ccc(F)c2OCc2ccccc2)c1O [Compound 1.014] | 3 (3=40-59%) | 5 (5=80-100%) | 5 (5=80-100%) | 5 (5=80-100%) | 4 (4=60-79%) | 4 (4=60-79%) |
| Cc1nn(C)c(=O)c(-c2c(F)ccc(F)c2OCc2ccccc2)c1O [Compound 1.016] | 4 (4=60-79%) | 5 (5=80-100%) | 5 (5=80-100%) | 5 (5=80-100%) | 5 (5=80-100%) | 5 (5=80-100%) |
| CCn1nc(C)c(O)c(-c2c(F)ccc(Cl)c2OCc2ccccc2)c1=O [Compound 1.037] | 5 (5=80-100%) | 5 (5=80-100%) | 4 (4=60-79%) | 5 (5=80-100%) | 5 (5=80-100%) | 5 (5=80-100%) |
| Cc1nn(C2CC2)c(=O)c(-c2c(Cl)ccc(Cl)c2OCc2ccccc2)c1O [Compound 1.041] | 4 (4=60-79%) | 5 (5=80-100%) | 5 (5=80-100%) | 5 (5=80-100%) | 5 (5=80-100%) | 5 (5=80-100%) |
| Cc1nn(C2CC2)c(=O)c(-c2c(F)ccc(Cl)c2OCc2ccccc2)c1O [Compound 1.044] | 5 (5=80-100%) | 5 (5=80-100%) | 5 (5=80-100%) | 5 (5=80-100%) | 5 (5=80-100%) | 5 (5=80-100%) |
| COc1ccc(COc2c(Cl)ccc(Cl)c2-c2c(O)c(C)nn(C)c2=O)cc1 [Compound 1.067] | 5 (5=80-100%) | 5 (5=80-100%) | 5 (5=80-100%) | 5 (5=80-100%) | 2 (2=20-39%) | 5 (5=80-100%) |
| Cc1nn(C)c(=O)c(-c2c(Cl)cccc2OCc2ccccc2)c1O [Compound 1.068] | 2 (2=20-39%) | 5 (5=80-100%) | 4 (4=60-79%) | 4 (4=60-79%) | 3 (3=40-59%) | 4 (4=60-79%) |
| Cc1nn(C)c(=O)c(-c2c(C(F)(F)F)ccc(F)c2OCc2ccccc2)c1O [Compound 1.069] | 3 (3=40-59%) | 5 (5=80-100%) | 5 (5=80-100%) | 5 (5=80-100%) | 3 (3=40-59%) | 5 (5=80-100%) |
